Measured values published in patent US12643882B2, “Inhibitors of human respiratory syncytial virus and metapneumovirus” (priority 2022, dated 2026).
pEC50: −log10 of the molar value. Where two headings read alike, the source gives them in different places.

Key:
RSV-A2-GFP virus = assay: microbe, parasite or virus in culture; format: cell-based, Human Respiratory Syncytial Virus
Procedure: To set up the assay, ARF vials were thawed in a 37° C. water bath and a control compound was resuspended in assay media DMEM (Dulbecco's Modified Eagle Medium) containing 2% FBS, 100 U/ml Penicillin-Streptomycin.
GFP sequence was derived from pJTI™ R4 Dest CMV N-EmGFP pA Vector (Invitrogen) and was cloned into the intergenic sequence between wild-type RSV-A2 P and M genes using standard recombineering techniques. Recombinant RSV-A2-GFP was propagated in Hep2 cells (human cells contain HeLa marker chromosomes and were derived via HeLa contamination, ATCC CCL-23) with a Multiplicity of Infection (MOI) of 0.1. Virus was harvested 3 days after infection by collecting all culture material and then freeze-thawing the mixture for 5 min. Working virus stocks were generated by thawing frozen viral cultures in 37° C. water bath, which were centrifuged at 218 g for 15 min at 4° C. 1/10 of 10×SPG (Biological Industries 06-3061-01-5A) were added and then mixed. The supernatant was aliquoted, frozen in liquid nitrogen, and then transferred to a −80° C. freezer for storage. Virus titer was determined by automated plaque assay in HEp-2 cells following methods described previously (Wen Z. et al.; 2019).
Calu-1 cells were purchased from ATCC (Cat #HTB-54) and were expanded in growth media (DMEM containing 10% FBS, 100 U/ml Penicillin-Streptomycin). To make ARF, cell culture media was removed and discarded and the cell layer was briefly rinsed with PBS to remove serum. 2.5 mL of TrypLE Express solution were added and cells incubated until dislodged, to which growth media was added and the cells were resuspended by gentle pipetting. Cells were counted for concentration and viability as determined by ViCell. Cells were centrifuged at RT, 300 g for 5 minutes to pellet cells. The supernatant was gently aspirated and the pellet was flicked to loosen cells. Cells were resuspended in an appropriate volume of freezing medium (DMEM containing 10% DMSO, 10% FBS, 100 U/ml Penicillin-Streptomycin) to achieve a concentration of 5×10^6 cells/mL. 1 mL aliquots of the cell suspension were transferred to freezing vials. The vials were put into an upright container in a −80° C. freezer overnight before transferring vials to liquid nitrogen for storage.
Assay ready freezedown (ARF, generation described separately) Calu-1 cells (ATCC HTB-54) were used. Compound plates were prepared by dispensing compounds dissolved in DMSO into the wells of a 384 well Corning® 3985 plate with an ECHO acoustic dispenser and compounds were tested in 10-point serial 3-fold dilution. […] To set up the assay, ARF vial(s) were thawed in a 37° C. water bath and were then resuspended into assay media (DMEM containing 2% FBS, 100 U/ml Penicillin-Streptomycin). Cells were counted using default parameters on ViCell and diluted to 20,000 cells/mL in assay media. RSV-A2-GFP virus was added to cells at 24,000 pfu/ml (MOI=1.2) and mixed by gentle inversion. 10 μL/well of 100% DMSO was dispensed as CellTiter-Glo (CTG) assay Max_E controls wells. The cells were dispensed at 50 μL/well using Bravo with 50 μL filtered tips into compound plates. Plates were covered with MicroClime lids, loaded with 7.5 mL of assay media to minimize evaporation, and were incubated at 37° C. and 5% CO2 for 96 hrs. Following incubation, distinct, GFP-expressing cells were counted using an Acumen imaging system with appropriate settings. A same-well CTG assay was performed by adding 10 μL/well reconstituted CellTiter-Glo reagent (Promega G7573) and plates were read on PerkinElmer Envision according to manufacturer's instructions. Raw data were loaded and analyzed in ActivityBase. Antiviral IC50 and cytotoxicity CC50 values were determined using a 4 parameter logistic fit based on the Levenberg-Marquardt algorithm. Model: 205-4 Parameter Logistic.

hMPV-GFP virus = assay: microbe, parasite or virus in culture; format: cell-based, human metapneumovirus
Procedure: GFP expressing rgHMPV #3 p3 was generated in Dr. Buchholz's lab (Biacchesi S. et al., J Virol. 2007 June; 81(11): 6057-6067) and propagated in VERO cells (ATCC Cat #CCL-81) with a Multiplicity of Infection (MOI) of 0.1. Virus was harvested 4 days after infection by collecting cultured material and was freeze-thaw cycled in liquid nitrogen twice. Working virus stocks were generated from thawing frozen samples in 37° C. water bath, which were centrifuged at 218 g for 15 min at 4° C. 1/10 of 10×SPG (Biological Industries 06-3061-01-5A) were added and then mixed. The supernatant was aliquoted, frozen in liquid nitrogen, and then transferred to a −80° C. freezer for storage. Virus titer was determined by performing titration test in 96-well plates and calculate approximate virus titer using GFP event/well data.
Compound plates were prepared by dispensing compounds dissolved in DMSO into wells of a 384 well Corning 3985 polystyrene flat clear bottom optical imaging microplate (202.5 nL/well) using an ECHO acoustic dispenser. Each compound was tested in 10-point serial 3-fold dilution (typical final concentrations: 40,300 nM-2 nM). […] Continuous culture of VERO cells was maintained in complete culture media (OptiMEM supplemented with 2 mM GlutaMAX™ and 100 U/ml Penicillin-Streptomycin). To set up the assay, VERO cells were trypsinized with 0.25% Trypsin-EDTA until cells were dislodged, then cells were re-suspended with 1 mL FBS. Cells were spun down at 300 g for 5 minutes and cells were washed twice with culture media and counted using default parameters on ViCell. Cells were then diluted to 100,000 cells/mL (5,000 cells/50 μL) in complete culture media+TrypLE Select (80 μL/mL). hMPV-GFP virus was added to cells at 125,000 pfu/mL (MOI=1.25) and were mixed by gentle inversion. 10 μL/well of 100% DMSO was dispensed to CellTiter-Glo (CTG) assay Max_E controls wells. Cells were dispensed at 50 μL/well using Bravo and 50 μL filtered tips into compound plates. Plates were covered with MicroClime lids and loaded with 7.5 mL of assay media to minimize evaporation. Plates were lightly shaken for 10 minutes at room temperature and then incubated at 37° C. and 5% CO2 for 48 hrs. Following incubation, distinct GFP-expressing cells were counted using an Acumen imaging system with appropriate settings. A same-well CTG assay was performed by adding 10 μL/well reconstituted CellTiter-Glo reagent (Promega G7573) and plates were read on PerkinElmer Envision according to manufacturer's instructions. Raw data were loaded and analyzed in ActivityBase. Antiviral IC50 and cytotoxicity CC50 values were determined using a 4 parameter logistic fit based on the Levenberg-Marquardt algorithm. Model: 205-4 Parameter Logistic. • References: Wen Z, Citron M, Bett A J, Espeseth A S, Vora K A, Zhang L, DiStefano D J. Development and application of a higher throughput RSV plaque assay by immunofluorescent imaging. J Virol Methods. 2019 January; 263:88-95. doi: 10.1016/j.jviromet.2018.10.022. Epub 2018 Oct. 28. PMD: 30381239. • Biacchesi S, Murphy B R, Collins P L, Buchholz U J. Frequent frameshift and point mutations in the SH gene of human metapneumovirus passaged in vitro. J Virol. 2007 June; 81(11):6057-67. doi: 10.1128/JVL.00128-07. Epub 2007 Mar. 21. PMID: 17376897; PMCID: MC 1900297. Assay Data

[1] = human respiratory syncytial virus, Calu-1, 96 h, read-out: RSV EC50, Calu-1 cells infected with RSV-A2-GFP, 96 hrs, GFP-expressing cells counted
[2] = human metapneumovirus, Vero, 48 h, read-out: hMPV EC50, VERO cells infected with hMPV-GFP, 48 hrs, GFP-expressing cells counted
[3] = Calu-1 cells infected with RSV-A2-GFP, 96 hrs, GFP-expressing cells counted, read-out: RSV EC50
[4] = VERO cells infected with hMPV-GFP, 48 hrs, GFP-expressing cells counted, read-out: hMPV EC50
[5] = read-out: hMPV EC50, VERO cells infected with hMPV-GFP, 48 hrs, GFP-expressing cells counted

Row | Structure (SMILES) | pEC50 (RSV-A2-GFP virus; [1]) | pEC50 (hMPV-GFP virus; [2]) | pEC50 (RSV-A2-GFP virus; [3]) | other results
1 | Cc1nn(-c2ncccn2)cc1C(=O)N1C[C@@H]2[C@H](C1)[C@H]2Oc1cc(C(C)(C)N)c(Cl)c(-c2ccc(F)cc2)n1 [Example 120, ((1R,5S,6s)-6-((4-(2-aminopropan-2-yl)-5-chloro-6-(4-fluorophenyl)pyridin-2-yl)oxy)-3-azabicyclo[3.1.0]hexan-3-yl)(3-methyl-1-(pyrimidin-2-yl)-1H-pyrazol-4-yl)methanone] | > 8.00 | < 7.00 |  | 
2 | Cc1nn(-c2ncccn2)cc1C(=O)N1C[C@@H]2[C@H](C1)[C@H]2Oc1cc(C(C)(C)N)cc(-c2ccc(C(F)(F)F)nc2)n1 [Example 87, ((1R,5S,6s)-6-((4-(2-aminopropan-2-yl)-6′-(trifluoromethyl)-[2,3′-bipyridin]-6-yl)oxy)-3-azabicyclo[3.1.0]hexan-3-yl)(3-methyl-1-(pyrimidin-2-yl)-1H-pyrazol-4-yl)methanone] |  |  | > 8.00 | pEC50 (hMPV-GFP virus; [4]): < 7.00
3 | Cn1nc(-c2ncccn2)cc1C(=O)N1C[C@H]2[C@H](Oc3cc(C(C)(C)N)cc(-c4ccc(F)cc4F)n3)[C@@]2(C)C1 (single isomer, unassigned; enantiomer 2) [Example 108B] |  |  |  | pEC50 (RSV-A2-GFP virus; read-out: RSV EC50, Calu-1 cells infected with RSV-A2-GFP, 96 hrs, GFP-expressing cells counted): > 8.00; pEC50 (hMPV-GFP virus; [5]): < 7.00
4 | Cn1nc(-c2ncccn2)c(F)c1C(=O)N1C[C@@H]2[C@H](C1)[C@H]2Oc1cc(C(C)(C)N)cc(-c2ccc(F)cc2)n1 [Example 54, ((1R,5S,6s)-6-((4-(2-aminopropan-2-yl)-6-(4-fluorophenyl)pyridin-2-yl)oxy)-3-azabicyclo[3.1.0]hexan-3-yl)(4-fluoro-1-methyl-3-(pyrimidin-2-yl)-1H-pyrazol-5-yl)methanone] | > 8.00 | < 7.00 |  | 
5 | Cc1nc(-c2ncccn2)sc1C(=O)N1C[C@@H]2[C@H](C1)[C@H]2Oc1cc(C(C)(C)N)cc(-c2cc3ccccc3n2C)n1 [Example 44, ((1R,5S,6s)-6-((4-(2-aminopropan-2-yl)-6-(1-methyl-1H-indol-2-yl)pyridin-2-yl)oxy)-3-azabicyclo[3.1.0]hexan-3-yl)(4-methyl-2-(pyrimidin-2-yl)thiazol-5-yl)methanone] |  |  | > 8.00 | pEC50 (hMPV-GFP virus; [4]): 7.00 to 8.00
6 | Cc1ccc(-c2cc(C(C)(C)N)cc(O[C@H]3[C@@H]4CN(C(=O)c5sc(-c6ncccn6)nc5C)C[C@@H]43)n2)cc1 [Example 21, ((1R,5S,6s)-6-((4-(2-aminopropan-2-yl)-6-(p-tolyl)pyridin-2-yl)oxy)-3-azabicyclo[3.1.0]hexan-3-yl)(4-methyl-2-(pyrimidin-2-yl)thiazol-5-yl)methanone] |  |  | > 8.00 | 
7 | Cc1nc(-c2ncccn2)sc1C(=O)N1C[C@@H]2[C@H](C1)[C@H]2Oc1cc(C(C)(C)N)cc(-c2cc3ccccc3[nH]2)n1 [Example 43, ((1R,5S,6s)-6-((4-(2-aminopropan-2-yl)-6-(1H-indol-2-yl)pyridin-2-yl)oxy)-3-azabicyclo[3.1.0]hexan-3-yl)(4-methyl-2-(pyrimidin-2-yl)thiazol-5-yl)methanone] |  |  | > 8.00 | pEC50 (hMPV-GFP virus; [4]): < 7.00
8 | Cc1nc(-c2ncccn2)sc1C(=O)N1C[C@H]2[C@H](Oc3cc(C(C)(C)N)cc(-c4ccc(F)cc4)n3)[C@@]2(C)C1 (single isomer, unassigned; enantiomer 2) [Example 103B] | > 8.00 | 7.00 to 8.00 |  | 
9 | Cc1nn(-c2ncccn2)cc1C(=O)N1C[C@H]2[C@H](Oc3cc(C(C)(C)N)cc(-c4ccc(C(F)(F)F)cc4)n3)[C@@]2(C)C1 (single isomer, unassigned; enantiomer 1) [Example 111A] | > 8.00 |  |  | pEC50 (hMPV-GFP virus; [5]): < 7.00
10 | COc1nn(-c2ncccn2)cc1C(=O)N1C[C@@H]2[C@H](C1)[C@H]2Oc1cc(C(C)(C)N)cc(-c2ccc(F)cc2)n1 [Example 62, ((1R,5S,6s)-6-((4-(2-aminopropan-2-yl)-6-(4-fluorophenyl)pyridin-2-yl)oxy)-3-azabicyclo[3.1.0]hexan-3-yl)(3-methoxy-1-(pyrimidin-2-yl)-1H-pyrazol-4-yl)methanone] | > 8.00 | < 7.00 |  | 
11 | Cc1nn(-c2ccccc2)cc1C(=O)N1C[C@@H]2[C@H](C1)[C@H]2Oc1cc(C(C)(C)N)cc(-c2ccc(F)cc2)n1 [Example 74, ((1R,5S,6s)-6-((4-(2-aminopropan-2-yl)-6-(4-fluorophenyl)pyridin-2-yl)oxy)-3-azabicyclo[3.1.0]hexan-3-yl)(3-methyl-1-phenyl-1H-pyrazol-4-yl)methanone] |  |  | > 8.00 | 
12 | Cc1nc(-c2ncccn2)sc1C(=O)N1C[C@@H]2[C@H](C1)[C@H]2Oc1cc(C(C)(C)N)cc(-c2ccc(F)c(F)c2)n1 [Example 15, ((1R,5S,6s)-6-((4-(2-aminopropan-2-yl)-6-(3,4-difluorophenyl)pyridin-2-yl)oxy)-3-azabicyclo[3.1.0]hexan-3-yl)(4-methyl-2-(pyrimidin-2-yl)thiazol-5-yl)methanone] |  |  | > 8.00 | 
